# Experimental data: US9528155B2, “In vitro method for determining immunotoxicity of a compound” (UNIVERSITEIT MAASTRICHT, priority 2012, dated 2016)
# Where two headings read alike, the source gives them in different places.
# Assays:
# Type in all cases: cell-based, human
# ABCA1 = experiment: Fluidigm multiplex real-time quantitative PCR of marker gene ABCA1 in exposed Jurkat cells
# CRIM1 = experiment: Fluidigm multiplex real-time quantitative PCR of marker gene CRIM1 in exposed Jurkat cells
# HMGCS1 = experiment: Fluidigm multiplex real-time quantitative PCR of marker gene HMGCS1 in exposed Jurkat cells
# CHAC1 = experiment: Fluidigm multiplex real-time quantitative PCR of marker gene CHAC1 in exposed Jurkat cells
# [1] = Jurkat cells, 6 h exposure at sub-cytotoxic exposure conc. of Tables 1/2, vs vehicle control, N=3, below -1.0 = underexpression
Compound,Expression levels of marker genes upon exposure: ABCA1 (Fold Change) (ABCA1; [1]),Expression levels of marker genes upon exposure: CRIM1 (Fold Change) (CRIM1; [1]),Expression levels of marker genes upon exposure: HMGCS1 (Fold Change) (HMGCS1; [1]),Expression levels of marker genes upon exposure: CHAC1 (Fold Change) (CHAC1; [1]),Expression levels of marker genes upon exposure: ABCA1 (Fold Change) (ABCA1),Expression levels of marker genes upon exposure: CRIM1 (Fold Change) (CRIM1),Expression levels of marker genes upon exposure: HMGCS1 (Fold Change) (HMGCS1),Expression levels of marker genes upon exposure: CHAC1 (Fold Change) (CHAC1)
"C[C@@H]1Cc2c(Cl)cc(C(=O)N[C@@H](Cc3ccccc3)C(=O)O)c(O)c2C(=O)O1 [OTA, ochratoxin A]",−2.2 ± 0.1,−1.3 ± 0.1,−2.5 ± 0.1,32.9 ± 14.5,–,–,–,–
"ochratoxin A, S9-treated [OTA S9]",1.3 ± 1.8,−1.1 ± 0.5,2.0 ± 1.0,−13.8 ± 0.0,–,–,–,–
"COc1c(C)c2c(c(O)c1C/C=C(\C)CCC(=O)O)C(=O)OC2 [MPA, mycophenolic acid]",1.1 ± 0.7,–,–,1.5 ± 0.9,–,–,–,–
OC[C@@H](O)[C@@H](O)[C@H](O)[C@H](O)CO [MANNITOL],–,1.1 ± 0.7,1.2 ± 0.3,–,–,–,–,–
"CC1=C[C@H]2O[C@@H]3[C@H](O)C[C@](C)([C@@]2(CO)[C@H](O)C1=O)[C@]31CO1 [DON, deoxynivalenol]",−1.9 ± 0.2,1.4 ± 0.4,−1.5 ± 0.3,−1.4 ± 0.4,–,–,–,–
"C[C@@H]1C[C@H]2[C@@H]3CCC4=CC(=O)C=C[C@]4(C)[C@@]3(F)[C@@H](O)C[C@]2(C)[C@@]1(O)C(=O)CO [DEX, dexamethasone]",–,1.4 ± 0.6,1.0 ± 0.1,–,–,–,–,–
"Clc1cc(Cl)c(-c2cc(Cl)c(Cl)cc2Cl)cc1Cl [PCB153, polychlorinated biphenyl 153]",–,–,–,–,1.1 ± 1.4,−1.2 ± 2.2,2.0 ± 1.2,1.2 ± 3
"C=CC(=O)NCNC(=O)C=C [MBA, N,N′-methylenebisacrylamide]",–,–,–,–,–,1.1 ± 1.9,1.0 ± 1.1,1.5 ± 2.1
O=S(=O)(O)C(F)(F)C(F)(F)C(F)(F)C(F)(F)C(F)(F)C(F)(F)C(F)(F)C(F)(F)F [PFOS],–,–,–,–,−4.3 ± 0.2,−1.5 ± 0.4,−1.1 ± 0.2,1.8 ± 1.5
arsenic trioxide [As2O3],1.4 ± 0.3,2.4 ± 1.1,−1.1 ± 0.2,41.2 ± 32.5,–,–,–,–
tributyltin oxide [TBTO],30.9 ± 8.5,−1.1 ± 0.8,−1.5 ± 0.1,−1.1 ± 0.4,–,–,–,–
"CCO [EtOH, ethanol]",1.2 ± 1.0,–,–,34.3 ± 2.3,–,–,–,–
"Cn1c(N)nc2c3cccnc3ccc21 [IQ, 2-amino-3-methyl-3H-imidazo[4,5-F]quinoline]",–,–,–,–,1.0 ± 2.2,1.1 ± 1.8,–,–
"Sc1ncnc2nc[nH]c12 [6MP, 6-mercaptopurine]",–,1.0 ± 0.6,–,1.8 ± 1.1,–,–,–,–
"CN(C)N=O [DMNA, dimethylnitrosamine]",–,–,–,–,−1.8±,−12 ± 1.5,1.2 ± 1.1,−1.5 ± 1.5
"Cn1cnc([N+](=O)[O-])c1Sc1ncnc2nc[nH]c12 [AZA, azathioprine]",–,1.8 ± 1.0,1.1 ± 0.2,2.3 ± 2.1,–,–,–,–
"CCCCC(CC)COC(=O)c1ccccc1C(=O)OCC(CC)CCCC (stereo not shown) [DEHP, Bis(2-ethylhexyl)phthalate]",–,1.9 ± 1.5,1.2 ± 0.1,–,–,–,–,–
"CC1(C)S[C@@H]2[C@H](NC(=O)[C@H](N)c3ccccc3)C(=O)N2[C@H]1C(=O)O [AMP, ampicillin]",–,1.2 ± 1.1,1.4 ± 0.3,–,–,–,–,–
"O=[N+]([O-])[O-].[Ag+] [AgNO3, silver nitrate]",1.5 ± 1.2,1.1 ± 0.3,1.6 ± 0.9,−1.1 ± 0.5,–,–,–,–
"CCC(=O)Nc1ccc(Cl)c(Cl)c1 [PROP, N-(3,4-Dichloro-phenyl)propanamide]",1.3 ± 1,1.4 ± 0.1,–,–,–,–,–,–
"CN(Cc1cnc2nc(N)nc(N)c2n1)c1ccc(C(=O)N[C@@H](CCC(=O)O)C(=O)O)cc1 [MTX, methotrexate]",–,1.4 ± 1.1,–,–,–,–,–,–
CCOC(N)=O [urethane],–,1.1 ± 0.5,1.2 ± 0.3,1.2 ± 0.4,–,–,–,–
"CCCCC(CC)COC(=O)c1ccccc1C(=O)O (stereo not shown) [MEHP, mono-(2-ethylhexyl) phthalate]",–,–,–,–,−1.2 ± 0.1,−1 ± 0.6,1.6 ± 0.9,3.5 ± 2.1
"C[C@]12C=CC(=O)C=C1CC[C@@H]1[C@@H]2[C@@H](O)C[C@@]2(C)[C@H]1CC[C@]2(O)C(=O)CO [PRD, prednisolone]",1.0 ± 0.6,3.9 ± 0.6,1.7 ± 0.1,2.7 ± 1.9,–,–,–,–
"Cl[C@H]1[C@H](Cl)[C@@H](Cl)[C@@H](Cl)[C@H](Cl)[C@H]1Cl [LIN, Gamma-hexachlorocyclohexane]",3.4 ± 3.6,2.3 ± 0.1,−2.4 ± 0,10.2 ± 7.6,–,–,–,–
"O=P1(N(CCCl)CCCl)NCCCO1 (stereo not shown) [CP S9, cyclophosphamide]",1.9 ± 1.6,1.1 ± 0.3,2.0 ± 1,–,–,–,–,–
"[Cl][Cd][Cl] [CdCl2, cadmium dichloride]",1.3 ± 1.3,4.3 ± 2.0,2.2 ± 1.3,7.0 ± 1.5,–,–,–,–
"O=[N+]([O-])c1ccc2ccc3cccc4ccc1c2c34 [1-NPR, 1-Nitropyrene]",–,–,–,–,1.3 ± 1.2,1.3 ± 1.6,–,–
